Data reported in patent US5254569A, “(Amidomethyl)nitrogen heterocyclic analgesics” (The Du Pont Merck Pharmaceutical Company, priority 1991, dated 1993).
Counter-ions that a name gives are not always drawn. Like-named read-outs stand apart in the source and are kept apart here.

How the values were obtained:
mu opioid receptor = test: opioid receptor binding, mu ([3H]naloxone); parameters: species or system guinea pig (method, b1124); rat (Table 4 title)
[1] = phenylquinone writhing test (PQW), analgesic activity in mice; format: in vivo, male white mice (CFl); settings: for ED50: Mus musculus
kappa opioid receptor = target: T1, kappa opioid receptor (Cavia porcellus, UniProt P41144); test: opioid receptor binding, kappa ((-)-[3H]ethylketocycloazocine); parameters: species or system guinea pig (method, b1124); rat (Table 4 title)
T1 construct: Whole brains were homogenized (20 sec) in 10 vol (wt/vol) of ice-cold 0.34 M sucrose; tissue Charles River (animals); host or cells: guinea pig whole-brain membranes
T1 sequence (P41144 whole entry): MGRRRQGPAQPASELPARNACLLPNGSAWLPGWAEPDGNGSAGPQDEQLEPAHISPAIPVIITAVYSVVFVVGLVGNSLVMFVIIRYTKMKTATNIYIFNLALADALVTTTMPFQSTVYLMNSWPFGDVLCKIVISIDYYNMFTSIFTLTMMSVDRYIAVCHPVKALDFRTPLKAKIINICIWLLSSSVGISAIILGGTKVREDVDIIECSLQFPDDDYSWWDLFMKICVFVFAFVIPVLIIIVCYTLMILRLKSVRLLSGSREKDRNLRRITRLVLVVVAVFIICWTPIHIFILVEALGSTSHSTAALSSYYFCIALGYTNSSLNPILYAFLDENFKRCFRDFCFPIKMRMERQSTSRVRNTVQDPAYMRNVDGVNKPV

[2] = mouse, in vivo; cited from earlier work
[3] = 0.5 nM [3H]naloxone, brain membranes, apparent Ki

| SMILES | Ki (mu opioid receptor) [nM] | ED50 ([1]; po) [mg/kg] | ED50 ([1]; sc) [mg/kg] | Ki (mu opioid receptor; [3]) [nM] | further results |
| --- | --- | --- | --- | --- | --- |
| COc1cccc([C@@H]([C@@H]2CCCCN2C)N(C)C(=O)Cc2ccc(Cl)c(Cl)c2)c1 [Example 120] | 633 | 19 | 1.6 | – | – |
| COc1cccc(C(C2CCCCN2C)N(C)C(=O)Cc2ccc(Cl)c(Cl)c2)c1 (stereo not shown) [Example 5, benzeneacetamide,3,4-dichloro-N-[1-(3-methoxyphenyl)-1-(1-methyl-2-piperidinyl)methyl]-N-methyl-, hydrochloride] | 3470 | 38 | 1.3 | – | – |
| CN1CCCC[C@@H]1[C@@H](c1ccccc1)N(C)C(=O)Cc1ccc(Cl)c(Cl)c1 [Example 107] | 253 | 30 | 13 | – | – |
| CN1CCCC[C@H]1[C@H](c1ccc(F)cc1)N(C)C(=O)COc1ccc(Cl)c(Cl)c1 [Example 136] | – | 1.7 | 0.24 | 54 | – |
| CN1CCCCC1C(c1ccccc1)N(C)C(=O)Cc1ccc(Cl)c(Cl)c1 (stereo not shown) [Example 9] | 322 | – | – | – | MOUSE PQW ED50 ([1]; p.o.): 16. mg/kg; MOUSE PQW ED50 ([1]; s.c.): 0.72 mg/kg |
| CN1CCCCC1C(c1cccc(O)c1)N(C)C(=O)Cc1ccc(Cl)c(Cl)c1 (stereo not shown) [Example 6, benzeneacetamide,3,4-dichloro-N-[1-(3-hydroxyphenyl)-1-(1-methyl-2-piperidinyl)methyl]-N-methyl-, hydrobromide] | 438 | > 81 | 18 | – | – |
| COc1cccc([C@@H]([C@@H]2CCCCN2C)N(C)C(=O)COc2ccc(Cl)c(Cl)c2)c1 [Example 140] | 104 | 5.2 | 0.29 | – | – |
| CN1CCCC[C@H]1[C@@H](c1ccccc1)N(C)C(=O)COc1ccc(Cl)c(Cl)c1 [Example 113] | > 10000 | > 81 | 67 | – | – |
| CN1CCCC[C@H]1[C@H](c1cccc(O)c1)N(C)C(=O)Cc1ccc(Cl)c(Cl)c1 [Example 122] | 209 | 47 | 36 | – | – |
| CN1CCCC[C@H]1[C@H](c1ccccc1)N(C)C(=O)Cc1ccc(Cl)c(Cl)c1 [Example 106, (+)-[2S-(R*,R*)]-(3,4-dichlorophenyl)-N-methyl-N-[1-(1-methyl-2-piperidinyl)phenylmethyl]acetamide hydrochloride] | 414 | 8.1 | 0.37 | – | – |
| CC(C1CCCCN1C)N(C)C(=O)Cc1ccc(Cl)c(Cl)c1 (stereo not shown) [Example 4, benzeneacetamide,3,4-dichloro-N-methyl-N-[1-(1-methyl-2-piperidinyl)ethyl]-, hydrochloride] | – | > 81 | 67 | 28500 | Ki (kappa opioid receptor): 1280 nM |
| CN1CCCC[C@@H]1[C@H](c1ccccc1)N(C)C(=O)COc1ccc(Cl)c(Cl)c1 [Example 112] | 4620 | > 81 | 12 | – | – |
| CN1CCCCC1C(c1ccc(O)cc1)N(C)C(=O)Cc1ccc(Cl)c(Cl)c1 (stereo not shown) [Example 8] | – | > 81 | > 81 | 11400 | Ki (kappa opioid receptor): 2590 nM |
| CN1CCCCC1C(c1ccccc1)N(C)C(=O)COc1ccc(Cl)c(Cl)c1 (stereo not shown) [Example 14] | – | 1.2 | 0.11 | 58 | – |
| CN1CCCC[C@H]1[C@H](c1ccccc1)N(C)C(=O)COc1ccc(Cl)c(Cl)c1 [Example 110] | – | 0.89 | 0.078 | 8 | – |
| CN1CCCCC1C(c1ccccc1)N(C)C(=O)Cc1ccc(Cl)cc1Cl (stereo not shown) [Example 13] | 625 | 24 | 8.1 | – | – |

| SMILES | Ki (mu opioid receptor) [nM] | ED50 ([1]; po) [mg/kg] | ED50 ([1]; sc) [mg/kg] | Ki (mu opioid receptor; [3]) [nM] | further results |
| --- | --- | --- | --- | --- | --- |
| CN1CC[C@]23c4c5ccc(O)c4O[C@H]2[C@@H](O)C=C[C@H]3[C@H]1C5 [Morphine] | – | – | – | – | sedation in mice [2]: do not produce sedation |
| CCN(C(=O)Cc1ccc(Cl)c(Cl)c1)C(c1ccccc1)C1CCCCN1C (stereo not shown) [Example 11] | 660 | 38 | – | – | MOUSE PQW ED50 ([1]; s.c.): 30.0 mg/kg |
| CN1CCCCC1C(c1ccccc1)N(C)C(=O)Cc1c(F)c(F)c(F)c(F)c1F (stereo not shown) [Example 10] | 3200 | 47 | 16 | – | – |
| CN1CCCCC1C(Cc1ccccc1)N(C)C(=O)Cc1ccc(Cl)c(Cl)c1 (stereo not shown) [Example 47] | – | > 81 | > 81 | 2560 | Ki (kappa opioid receptor): 3990 nM |
| CN1CCCC[C@H]1[C@@H](c1ccccc1)N(C)C(=O)Cc1ccc(Cl)c(Cl)c1 [Example 109] | 3860 | > 81 | > 81 | – | – |
| CN(C(=O)Cc1ccc(Cl)c(Cl)c1)[C@@H](c1ccccc1)[C@@H]1CCCCN1CC1CC1 [Example 179] | – | 10 | > 81 | 604 | Ki (kappa opioid receptor): 397 nM |
| CN1CCCC[C@H]1[C@H](c1ccc(F)cc1)N(C)C(=O)Cc1ccc(Cl)c(Cl)c1 [Example 118] | 1060 | 19 | 1.7 | – | – |
| CCN(C(=O)Cc1ccc(Cl)c(Cl)c1)C(c1ccccc1)C1CCCCN1C (stereo not shown) [Example 12] | 3320 | – | – | – | MOUSE PQW ED50 ([1]; p.o.): 24. mg/kg; MOUSE PQW ED50 ([1]; s.c.): 1.7 mg/kg |
| C=CCN1CCCC[C@H]1[C@H](c1ccccc1)N(C)C(=O)Cc1ccc(Cl)c(Cl)c1 [Example 180] | 530 | 24 | > 81 | – | – |
| CN1CCCC[C@@H]1[C@@H](c1ccccc1)N(C)C(=O)COc1ccc(Cl)c(Cl)c1 [Example 111] | 195 | 19 | 1.3 | – | – |
| CN(C(=O)Cc1ccc(Cl)c(Cl)c1)C(c1ccccc1)C1CCCCN1CC1CC1 (stereo not shown) [Example 3] | – | 47 | > 81 | 957 | Ki (kappa opioid receptor): 530 nM |
| COc1ccc(C(C2CCCCN2C)N(C)C(=O)Cc2ccc(Cl)c(Cl)c2)cc1 (stereo not shown) [Example 7, Benzeneacetamide, 3,4-dichloro-N-((1-(4-methoxyphenyl)-1-(1-methyl-2-piperidinylmethyl))-N-methyl-, hydrochloride] | – | > 81 | > 81 | 5670 | Ki (kappa opioid receptor): 4590 nM |
| CN1CCCCC1C(c1ccccc1)N(C)C(=O)Cc1ccc(Cl)c(Cl)c1 (stereo not shown) [Example 2, benzeneacetamide, 3,4-dichloro-N-methyl-N-[1-(1-methyl-2-piperidinyl)phenyl-methyl], hydrochloride] | – | 10 | – | – | Ki (mu opioid receptor; hydrochloride): 270 nM; MOUSE PQW ED50 ([1]; s.c., hydrochloride): 1.7 mg/kg |
| CN1CCCC[C@H]1[C@H](c1cccc(O)c1)N(C)C(=O)COc1ccc(Cl)c(Cl)c1 [Example 144] | – | 16 | 4.2 | 27 | – |
| CN1CCCC[C@H]1[C@H](c1ccccc1)N(C)C(=O)Cc1cccc2occc12 [Example 114] | 250 | 8.1 | 0.57 | – | – |
